Literature values as cited in patent US20250213501A1, “IMPROVING SEMEN QUALITY” (CEUTICS HEALTH GMBH, priority 2022, published 2025).

Key:
[1] = daily intake of 12 mg of spermidine provided in a plant extract (e.g., wheat germ extract)

## NCCCCNCCCN [spermidine]
70 kg person
  NOAEL for a 70 kg person: 470 mg/day
Til et al., Food and Chemical Toxicology 1997
  NOAEL (No Observed Adverse Effect Level): 83 mg/kg body weight/day
[1]
  safety of daily intake: safe
